Laboratory results taken from ChEMBL document CHEMBL2203091, “Synthesis of novel МТ3 receptor ligands via an unusual Knoevenagel condensation” (Bioorg Med Chem Lett, 2012).

Key:
[1] = molecular target: T1, Ribosyldihydronicotinamide dehydrogenase [quinone] (Homo sapiens, UniProt P16083); assay: Binding affinity to […] reductase 2 using MTT and NMeH as substrates
T1 sequence (P16083 whole entry): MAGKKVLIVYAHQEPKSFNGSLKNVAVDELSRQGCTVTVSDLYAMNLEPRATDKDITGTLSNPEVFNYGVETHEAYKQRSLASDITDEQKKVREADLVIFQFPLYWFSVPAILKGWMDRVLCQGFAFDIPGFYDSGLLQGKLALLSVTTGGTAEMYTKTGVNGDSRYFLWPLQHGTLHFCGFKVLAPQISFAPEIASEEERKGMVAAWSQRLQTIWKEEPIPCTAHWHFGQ

[2] = molecular target: T2, Ribosyldihydronicotinamide dehydrogenase [quinone] (Homo sapiens) (UniProt P16083); assay: Inhibition of […] reductase 2 using MTT and NMeH as substrates
T2 sequence (whole entry): T1 sequence (P16083 whole entry)

[3] = molecular target: T2, Ribosyldihydronicotinamide dehydrogenase [quinone] (Homo sapiens); conditions: 0.5 to 50 uM
Description: Inhibition of human recombinant quinine reductase 2 expressed in Escherichia coli BL21 (DE3) using menadione and NMeH as substrates at 0.5 to 50 uM

CC(=O)Nc1ccc2c(c1)C(CC#N)C(=O)N2C (stereo not given)
IC50 [1]: 7 µM | Imax [2]: 99.2%

CC(=O)NCCC1(O)C(=O)Nc2ccc(NC(C)=O)cc21 (stereo not given)
IC50 [1]: 0.2 µM | Imax [2]: 36.3%

CC(=O)NCCC1C(=O)Nc2ccc(NC(C)=O)cc21 (stereo not given)
IC50 [1]: 20.7 µM | Imax [2]: 81.7%

COc1ccc2[nH]cc(CCNC(C)=O)c2c1
Imax [3]: 75% | Imax [2]: 85.2%

CC(=O)Nc1ccc2c(c1)C(CC#N)C(=O)N2 (stereo not given)
IC50 [1]: 14.1 µM | Imax [2]: 100%
